In brackets after ≈: the same amount, converted by molar mass.
Experiments:
[1] = target: T1, Prostaglandin E2 receptor EP2 subtype (Homo sapiens, UniProt P43116); assay: Binding affinity to human EP2 receptor expressed in C6 cells assessed as binding constant at 10 mins by TR-FRET cAMP functional assay; assay type: cell-based; details: filed as antagonist
[2] = Half life in mouse C57BL/6 plasma at 20 mg/kg,ip by LC-MS/MS analysis; assay type: ADME, organism-based; details: C57BL/6, mouse
[3] = Ratio of drug level in brain to plasma in C57BL/6 mouse at 20 mg/kg, ip by LC-MS/MS analysis; assay type: ADME, organism-based; details: read-out: BPR
[4] = Ratio of drug level in brain to plasma in pilocarpine-induced Sprague-Dawley rat at 25 mg/kg, ip after 6 hrs by LC-MS/MS analysis
[5] = target: T2, Prostaglandin D2 receptor (Homo sapiens, UniProt Q13258); assay: Binding affinity to human DP1 receptor expressed in CHO cells assessed as inhibition constant; assay type: cell-based
T2 sequence (Q13258 whole entry): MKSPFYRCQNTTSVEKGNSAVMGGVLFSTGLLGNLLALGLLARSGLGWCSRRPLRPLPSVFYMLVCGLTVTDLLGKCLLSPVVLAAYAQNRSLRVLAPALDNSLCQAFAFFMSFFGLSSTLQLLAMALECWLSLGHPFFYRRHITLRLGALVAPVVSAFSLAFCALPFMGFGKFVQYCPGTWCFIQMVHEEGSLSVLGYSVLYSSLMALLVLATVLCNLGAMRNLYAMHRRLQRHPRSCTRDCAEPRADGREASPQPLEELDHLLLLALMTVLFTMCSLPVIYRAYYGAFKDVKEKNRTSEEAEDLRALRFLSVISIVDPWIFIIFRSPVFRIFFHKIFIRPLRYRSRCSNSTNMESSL

[6] = target: T3, Prostaglandin E2 receptor EP1 subtype (Homo sapiens, UniProt P34995); assay: Binding affinity to EP1 receptor (unknown origin) assessed as inhibition constant
T3 sequence (P34995 whole entry): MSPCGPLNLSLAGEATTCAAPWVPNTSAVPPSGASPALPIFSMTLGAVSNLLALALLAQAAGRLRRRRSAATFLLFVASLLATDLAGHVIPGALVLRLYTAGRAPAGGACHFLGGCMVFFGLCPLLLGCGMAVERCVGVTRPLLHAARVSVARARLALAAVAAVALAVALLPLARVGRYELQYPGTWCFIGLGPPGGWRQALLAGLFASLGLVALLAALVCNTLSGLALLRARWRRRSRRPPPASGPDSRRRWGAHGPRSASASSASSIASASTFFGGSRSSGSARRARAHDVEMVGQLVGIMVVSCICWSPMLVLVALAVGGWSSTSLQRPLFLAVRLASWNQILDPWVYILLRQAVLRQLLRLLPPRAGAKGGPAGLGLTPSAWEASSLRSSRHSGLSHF

[7] = target: T4, Prostaglandin E2 receptor EP3 subtype (Homo sapiens, UniProt P43115); assay: Binding affinity to EP3 receptor (unknown origin) assessed as inhibition constant
T4 sequence (P43115 whole entry): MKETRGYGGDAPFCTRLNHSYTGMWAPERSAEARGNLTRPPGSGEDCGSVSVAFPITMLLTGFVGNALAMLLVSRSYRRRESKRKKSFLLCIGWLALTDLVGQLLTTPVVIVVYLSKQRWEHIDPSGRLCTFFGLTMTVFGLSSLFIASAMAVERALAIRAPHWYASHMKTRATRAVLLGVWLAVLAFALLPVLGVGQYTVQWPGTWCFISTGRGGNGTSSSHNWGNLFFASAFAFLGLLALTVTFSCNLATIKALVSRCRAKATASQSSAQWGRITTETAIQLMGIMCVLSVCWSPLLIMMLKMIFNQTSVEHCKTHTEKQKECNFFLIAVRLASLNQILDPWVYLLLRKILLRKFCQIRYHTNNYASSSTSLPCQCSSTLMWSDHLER

[8] = target: T5, Prostaglandin E2 receptor EP4 subtype (Homo sapiens, UniProt P35408); assay: Binding affinity to human EP4 receptor expressed in CHO cells assessed as inhibition constant; assay type: cell-based
[9] = target: T1, Prostaglandin E2 receptor EP2 subtype; assay: Binding affinity to EP2 receptor in human mast cell assessed as inhibition constant; assay type: cell-based
[10] = target: T2, Prostaglandin D2 receptor; assay: Binding affinity to DP1 receptor in human mast cell assessed as inhibition constant; assay type: cell-based
[11] = target: T5, Prostaglandin E2 receptor EP4 subtype; assay: Binding affinity to EP4 receptor in human mast cell assessed as inhibition constant; assay type: cell-based
[12] = target: T1, Prostaglandin E2 receptor EP2 subtype; assay: Potency index, ratio of PF-0418948 Ki to test compound Ki for binding affinity to human EP2
[13] = target: T1, Prostaglandin E2 receptor EP2 subtype; assay: Binding affinity to human EP2 receptor expressed in rat C6 cells assessed as binding constant; assay type: cell-based; details: filed as antagonist
[14] = target: T6, Prostaglandin D2 receptor (Homo sapiens) (UniProt Q13258); assay: Binding affinity to human DP1 receptor expressed in rat C6 cells assessed as binding constant; assay type: cell-based; details: filed as antagonist
T6 sequence (whole entry): T2 sequence (Q13258 whole entry)

[15] = target: T5, Prostaglandin E2 receptor EP4 subtype; assay: Binding affinity to EP4 receptor (unknown origin) assessed as binding constant; details: filed as antagonist
[16] = Half life in C57BL/6 mouse at 10 mg/kg, po by LC-MS/MS analysis; assay type: ADME, organism-based; details: in vivo
[17] = Ratio of drug level in brain to plasma in C57BL/6 mouse at 10 mg/kg, po by LC-MS/MS analysis; assay type: ADME, organism-based; details: read-out: BPR
[18] = Aqueous solubility of compound in PBS buffer at pH 7.4 by nephelometric analysis; assay type: ADME
[19] = Ratio of drug level in brain to plasma in C57BL/6 mouse at 3 mg/kg, ip by LC-MS/MS analysis; assay type: ADME, organism-based; details: read-out: BPR
[20] = Solubility of the compound; assay type: ADME

T1 sequence (P43116 whole entry): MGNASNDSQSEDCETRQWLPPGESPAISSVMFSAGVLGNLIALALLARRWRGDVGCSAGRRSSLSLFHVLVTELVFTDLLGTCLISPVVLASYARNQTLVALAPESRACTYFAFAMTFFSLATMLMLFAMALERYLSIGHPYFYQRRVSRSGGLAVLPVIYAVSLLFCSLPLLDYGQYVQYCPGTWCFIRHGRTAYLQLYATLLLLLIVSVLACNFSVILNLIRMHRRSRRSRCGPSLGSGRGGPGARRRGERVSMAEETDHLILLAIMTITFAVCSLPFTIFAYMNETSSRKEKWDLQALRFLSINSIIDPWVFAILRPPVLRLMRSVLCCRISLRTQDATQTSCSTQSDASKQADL
T5 sequence (P35408 whole entry): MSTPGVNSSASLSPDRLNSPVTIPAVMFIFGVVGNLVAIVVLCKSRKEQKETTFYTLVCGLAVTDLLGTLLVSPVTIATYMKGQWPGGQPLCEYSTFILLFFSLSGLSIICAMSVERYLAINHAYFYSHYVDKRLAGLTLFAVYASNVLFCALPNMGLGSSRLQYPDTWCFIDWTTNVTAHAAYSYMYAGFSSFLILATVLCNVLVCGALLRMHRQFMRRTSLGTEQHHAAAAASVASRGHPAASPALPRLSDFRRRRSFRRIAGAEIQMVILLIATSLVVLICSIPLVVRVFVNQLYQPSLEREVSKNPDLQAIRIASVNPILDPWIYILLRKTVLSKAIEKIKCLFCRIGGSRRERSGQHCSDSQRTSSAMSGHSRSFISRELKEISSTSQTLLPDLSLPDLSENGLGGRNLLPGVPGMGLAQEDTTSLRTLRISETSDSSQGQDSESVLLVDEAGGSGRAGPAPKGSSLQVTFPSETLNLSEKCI

## Cc1[nH]c2ccccc2c1CCNC(=O)c1ccc(-c2c[nH]cn2)cc1
[1]
  Kb: 0.0132 µM
[2]
  half-life: 2.8 h
[3]
  Kp: 0.02
[4]
  Kp at 6 h: 0.03

## COc1ccc2cc(OCC3(C(=O)O)CN(C(=O)c4ccc(F)cc4)C3)ccc2c1 [PF-04418948]
[5]
  Ki: > 10 µM
[6]
  Ki: > 10 µM
[7]
  Ki: > 10 µM
[8]
  Ki: > 10 µM

## COc1ccc(C(=O)N2CCC(COc3ccc(-c4ccc(C#N)cc4)cc3)(C(=O)O)C2)cc1 (stereo not given)
[9]
  Ki: 0.00063 µM
[10]
  Ki: 1.2 µM
[11]
  Ki: 16.3 µM
[12]
  Ratio Ki: 10

## Cc1cc2ccccc2n1CCNC(=O)c1ccc(-c2nnn[nH]2)cc1
[13]
  Kb: 0.0485 µM
[14]
  Kb: 18 µM
[15]
  Kb: 15 µM
[16]
  half-life: 10.5 h
[17]
  Kp: 0.02
[18]
  solubility kinetic: 500 µM (≈ 173 µg/mL)

## COc1cc(/C=C/C(=O)NCCn2c(C)cc3ccccc32)cc(OC)c1OC
[19]
  Kp: 0.3
[20]
  solubility: 45 µM (≈ 17.8 µg/mL)

— ChEMBL document CHEMBL5223088, “EP2 Antagonists (2011-2021): A Decade's Journey from Discovery to Therapeutics” (J Med Chem, 2021)
